Source: patent publication US8772490B2, “Optically active diazabicyclooctane derivatives and process for preparing the same” (Meiji Seika Pharma Co., Ltd., priority 2010, dated 2014)

Assays:
AmpC β-lactamase = AmpC β-lactamase (Pseudomonas aeruginosa (strain ATCC 15692 / DSM 22644 / CIP 104116 / JCM 14847 / LMG 12228 / 1C / PRS 101 / PAO1), UniProt P24735); type: biochemical
Method: The biological activity of the above-mentioned compounds represented by formulae (H) and (s) can be measured as follows. […] Further, using constitutive AmpC producing Pseudomonas aeruginosa, a combined antimicrobial activity (MIC) was measured when using Piperacillin (PIPC) as an antibiotic and the compound of formula (H) or (s) in combination to check whether or not the antimicrobial activity of PIPC could be restored.
Using P. aeruginosa PAO1 genome as a template, a DNA for encoding an AmpC β-lactamase domain excluding a signal peptide was amplified with PCR. This PCR product was incorporated into pET-28b(+)vector (Merck), introduced into E. coli BL21 (Merck), and, under induction of 1 mM isopropyl-β-D-(−)-thiogalactopyranoside (Nacalai Tesque), cultured overnight at 20° C. to express AmpC. After the bacterial cell was collected. AmpC was purified from the cell extract obtained by ultrasonic treatment, using CM Sepharose Fast Flow (GE Healthcare) and HiTrap Heparin HP (GE Healthcare) at 4° C.

[1] = test system: P. aeruginosa PAO1 variant, which constitutively expresses AmpC; test: Combinatorial antibacterial activity: MIC of piperacillin (PIPC) with test compound, agar plate dilution; type: cell-based, Pseudomonas aeruginosa; conditions: for MIC (antimicrobial activity of Piperacillin (PIPC) in combination with the compound): Table 7, PIPC in combination with 4 μg/mL of the compound
Method: The biological activity of the above-mentioned compounds represented by formulae (H) and (s) can be measured as follows. Specifically, an enzyme inhibitory activity (IC50 value) against AmpC enzyme which is a class C β-lactamase was determined using nitrocephin as a substrate to check whether or not the compounds had the inhibitory activity and compare the activities of them. Further, using constitutive AmpC producing Pseudomonas aeruginosa, a combined antimicrobial activity (MIC) was measured when using Piperacillin (PIPC) as an antibiotic and the compound of formula (H) or (s) in combination to check whether or not the antimicrobial activity of PIPC could be restored.
The combinatorial effect of the test compound with a β-lactam agent against bacteria was evaluated using AmpC constitutive expression strain selected from P. aeruginosa PAO1 through agent exposure. Using piperacillin (PIPC, Sigma-Aldrich) as a β-lactam agent, measurement was conducted by agar plate dilution process in which minimal inhibitory concentration (MIC) of PIPC is based on Clinical and Laboratory Standards Institute (CLSI process). That is, an agara plate containing 4 μg/mL (final concentration) of test compound and PIPC at each concentration in Mueller-Hinton agar (Becton, Dickinson and Company) was made, and bacteria cultured overnight in cation-adjusted Muller-Hinton broth (Becton, Dickinson and Company) were adjusted in the same medium so as to have 10^4 CFU/spot and inoculated on a plate containing an agent. This plate containing an agent was cultured overnight at 35° C., and the minimum agent concentration in which no growth of bacteria is observed was determined to be MIC.

Chain of AmpC β-lactamase (P24735 27-397): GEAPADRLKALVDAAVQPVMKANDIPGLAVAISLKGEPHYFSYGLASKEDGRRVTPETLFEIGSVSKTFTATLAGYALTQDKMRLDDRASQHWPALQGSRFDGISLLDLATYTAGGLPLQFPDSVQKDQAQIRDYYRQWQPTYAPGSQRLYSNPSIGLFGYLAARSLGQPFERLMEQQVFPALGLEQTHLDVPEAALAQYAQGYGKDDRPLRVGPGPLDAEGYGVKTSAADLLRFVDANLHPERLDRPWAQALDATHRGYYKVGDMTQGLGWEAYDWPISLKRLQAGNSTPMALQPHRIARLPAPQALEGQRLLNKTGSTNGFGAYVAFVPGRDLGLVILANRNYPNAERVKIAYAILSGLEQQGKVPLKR

## NC(=O)[C@@H]1CC[C@@H]2CN1C(=O)N2OS(=O)(=O)[O-].[Na+] [Example 23, (2S,5R)-1,6-Diazabicyclo[3.2.1]octane-2-carboxamide, 7-oxo-6-(sulfoxy)-monosodium salt]
AmpC β-lactamase
  β-lactamase enzyme inhibitory activity (in words): exhibited the activities
[1]
  effect of the compound in combination with an antibiotic (in words): exhibited the activities
  MIC (antimicrobial activity of Piperacillin (PIPC) in combination with the compound): 4 µg/mL

## C[C@]1(Cn2ccnn2)[C@H](C(=O)[O-])N2C(=O)C[C@H]2S1(=O)=O.[Na+] [TAZ, Tazobactam, reference compound]
[1]
  MIC (antimicrobial activity of Piperacillin (PIPC) in combination with the compound): 64 µg/mL

## NC(=O)[C@H]1CC[C@H]2CN1C(=O)N2OS(=O)(=O)[O-].[Na+] [Example 24, (2R,5S)-1,6-Diazabicyclo[3.2.1]octane-2-carboxamide, 7-oxo-6-(sulfoxy)-monosodium salt]
AmpC β-lactamase
  β-lactamase enzyme inhibitory activity (in words): exhibited no activity
[1]
  effect of the compound in combination with an antibiotic (in words): exhibited no activity
  MIC (antimicrobial activity of Piperacillin (PIPC) in combination with the compound): 64 µg/mL
